{"source": "patent US8058270B2", "about": "“Dihydropteridinones for the treatment of cancer diseases” (Boehringer Ingelheim International GmbH, priority 2004, dated 2011)", "assay_type_in_all_cases": "cell-based", "key": {"Raji [1]": {"test_system": "Raji", "test": "FACS analysis on PI stained tumor cells, G2/M arrest", "details": "Homo sapiens; Raji (Lymphoma), 24 hrs; read-out: FACS Analysis G2M-Arrest EC50", "source_text": "(§1) FACS Analysis on PI Stained Tumor Cells\n(§2) Propidium iodine (PI) binds stoichiometrically to double stranded DNA and thus is a suitable agent to measure the DNA content of cells in order to determine the percentage of cells residing in various cell cycle stages (G0/1-, S- and G2/M-phases), whereas cells in G0 or G1 phase do have a diploid DNA content (2N) cells in G2 and M-phase (mitosis) do have a doubled (4N) DNA content.\n(§3) Cell culture: The various human tumor cell lines can be purchased from American Type Culture Collection (ATCC) or the German Collection of Microorganisms and Cell Cultures (DSMZ) and cultivated in 75 to 175 cm^2 tissue culture flasks in the medium indicated by the supplier. The cells are maintained at 37° C. and 5% CO2 in a humidified atmosphere, with an appropriate split ratio. Logarithmically growing cells are used for the assays.\n(§4) Assay conditions: On day one of the experiment 1×10^6 tumor cells are plated in 15 ml medium onto each 75 cm^2 tissue culture flask and the cultures are returned to the incubator. On the next day serial twofold dilutions (100× concentrated) of the inhibitor are prepared in tissue culture medium containing 10% DMSO. 150 μl of the 100× concentrated dilution is added to the 15 ml medium in the flask. As control DMSO is given into a separate flask to yield a final concentration of 0.1%. Typical final concentrations used are 1.6, […], 0.4, 0.2, 0.1, 0.05, 0.025, 0.0125, 0.00625 μM in medium containing 0.1% DMSO. After 24 hrs of incubation cells are harvested by 2× wash with PBS and subsequent addition of trypsin/EDTA. Trypsinized cells are washed off the plastic with 1% BSA in PBS. Non-adherent cells in the medium and cells in the PBS wash fluids are pelleted together with the trypsinized cells by centrifuging them for 5 min at 1000 rpm at 4° C. The supernatants are discarded and the pellet is washed twice with PBS. After aspiration of the supernatants pellets are resuspended in the residual PBS (˜100 μl). For cell fixation, 15 ml test tubes (Falcon) with 5 ml of 80% cold ethanol are prepared and the cell suspension is added slowly and kept for at least 2 h or overnight at minus 20° C. Fixed cells are pelleted, washed once with PBS and the cell pellet is then resuspended in 2 ml of 0.25% Triton X-100 in PBS. After 5 min incubation on ice, 5 ml of PBS is added to each sample and the sample is again centrifuged at 1000 rpm for 5 min at 4° C. The supernatant is discarded and the pellet is resuspended in 0.5 ml propidium iodine (PI) staining solution (0.1% RNase and 10 μg/ml propidium iodine in PBS). The cells are incubated for 20 min in the dark and subsequently transferred to 5 ml polystyrene round-bottom tubes.\n(§5) Data analysis: Analysis of the DNA content of the cells can be performed using a FACS analyzer equipped with an argon laser (500 mW, emission 488 nm) and the use of the DNA Cell Quest analysis software (Beckton Dickinson). The logarithmic PI fluorescence is determined in a band-pass filter (Beckton Dickinson 585/43). Quantification of the cell populations residing in the individual cell cycle phases (e.g. G0/G1-, S- and G2/M-phases) is done with the ModFit LT software package from Becton Dickinson. An EC50 value for cells arrested at the G2/M-phase of the cell cycle is calculated by using a sigmoidal curve analysis program (Graph Pad Prism version 3.03)."}, "Saos-2 [2]": {"test_system": "Saos-2", "test": "FACS analysis on PI stained tumor cells, G2/M arrest", "details": "Homo sapiens; Saos-2 (Bone), 24 hrs; read-out: FACS Analysis G2M-Arrest EC50", "source_text": "as §1, §2, §3, §4, §5"}, "MDA-MB-435S [3]": {"test_system": "MDA-MB-435S", "test": "FACS analysis on PI stained tumor cells, G2/M arrest", "details": "Homo sapiens; MDA-MB-435S (Breast), 24 hrs; read-out: FACS Analysis G2M-Arrest EC50", "source_text": "as §1, §2, §3, §4, §5"}, "NCI-H520": {"test_system": "NCI-H520", "test": "FACS analysis on PI stained tumor cells, G2/M arrest", "details": "Homo sapiens; NCI-H520 (Lung), 24 hrs; read-out: FACS Analysis G2M-Arrest EC50", "source_text": "as §1, §2, §3, §4, §5"}, "HeLa S3": {"test_system": "HeLa S3", "test": "FACS analysis on PI stained tumor cells, G2/M arrest", "details": "Homo sapiens; HeLa S3 (Cervix), 24 hrs; read-out: FACS Analysis G2M-Arrest EC50", "source_text": "as §1, §2, §3, §4, §5"}, "BxPC-3": {"test_system": "BxPC-3", "test": "FACS analysis on PI stained tumor cells, G2/M arrest", "details": "Homo sapiens; BxPC-3 (Pancreas), 24 hrs; read-out: FACS Analysis G2M-Arrest EC50", "source_text": "as §1, §2, §3, §4, §5"}, "NCI-H460": {"test_system": "NCI-H460", "test": "FACS analysis on PI stained tumor cells, G2/M arrest", "details": "Homo sapiens; NCI-H460 (Lung), 24 hrs; read-out: FACS Analysis G2M-Arrest EC50", "source_text": "as §1, §2, §3, §4, §5"}, "A549": {"test_system": "A549", "test": "FACS analysis on PI stained tumor cells, G2/M arrest", "details": "Homo sapiens; A549 (Lung), 24 hrs; read-out: FACS Analysis G2M-Arrest EC50", "source_text": "as §1, §2, §3, §4, §5"}, "GRANTA-519": {"test_system": "GRANTA-519", "test": "FACS analysis on PI stained tumor cells, G2/M arrest", "details": "Homo sapiens; GRANTA-519 (Lymphoma), 24 hrs; read-out: FACS Analysis G2M-Arrest EC50", "source_text": "as §1, §2, §3, §4, §5"}, "SKOV-3": {"test_system": "SKOV-3", "test": "FACS analysis on PI stained tumor cells, G2/M arrest", "details": "Homo sapiens, SK-OV-3; SKOV-3 (Ovary), 24 hrs; read-out: FACS Analysis G2M-Arrest EC50", "source_text": "as §1, §2, §3, §4, §5"}, "PC-3": {"test_system": "PC-3", "test": "FACS analysis on PI stained tumor cells, G2/M arrest", "details": "Homo sapiens; PC-3 (Prostate), 24 hrs; read-out: FACS Analysis G2M-Arrest EC50", "source_text": "as §1, §2, §3, §4, §5"}, "A431": {"test_system": "A431", "test": "FACS analysis on PI stained tumor cells, G2/M arrest", "details": "Homo sapiens, A-431; A431 (Vulva), 24 hrs; read-out: FACS Analysis G2M-Arrest EC50", "source_text": "as §1, §2, §3, §4, §5"}, "HepG2": {"test_system": "HepG2", "test": "FACS analysis on PI stained tumor cells, G2/M arrest", "details": "Homo sapiens; HepG2 (Liver), 24 hrs; read-out: FACS Analysis G2M-Arrest EC50", "source_text": "as §1, §2, §3, §4, §5"}, "H4": {"test_system": "H4", "test": "FACS analysis on PI stained tumor cells, G2/M arrest", "details": "Homo sapiens; H4 (Brain), 24 hrs; read-out: FACS Analysis G2M-Arrest EC50", "source_text": "as §1, §2, §3, §4, §5"}, "FaDu": {"test_system": "FaDu", "test": "FACS analysis on PI stained tumor cells, G2/M arrest", "details": "Homo sapiens; FaDu (Head and Neck), 24 hrs; read-out: FACS Analysis G2M-Arrest EC50", "source_text": "as §1, §2, §3, §4, §5"}, "MCF7": {"test_system": "MCF7", "test": "Alamar Blue cytotoxicity assay", "details": "Homo sapiens; MCF7 (Breast), 72 h", "source_text": "(§6) Alamar Blue™ Cytotoxicity Assays\n(§7) The Alamar Blue™ assay is designed to measure quantitatively the proliferation of cells by incorporating a fluorometric/colorimetric growth indicator based on the detection of metabolic activity.\nas §3\n(§8) Assay conditions: On day one of the experiment 1000-4000 cells (in 100 μl medium) are seeded into each well of a sterile 96-well plate. The number of cells used is dependent on the growth rate and size of the cells. Eight wells on each plate are left free to accommodate for controls (4 wells for medium plus reduced AlamarBlue™, and 4 wells for medium plus oxidized AlamarBlue™). The plates are kept in the incubator overnight. On day two of the experiment serial dilutions of the inhibitor are prepared in medium containing 0.1% DMSO. Typical concentrations used are 10, 3, 1, 0.3, 0.1, 0.03, 0.01, 0.003 and 0.001 μM. 100 μl of the dilution (2× concentrate) is added to each well to yield a final volume of 200 μl per well. As controls plain medium and medium containing 0.1% DMSO are added to the designated wells. All data points are done in quadruplicates. The cells are then incubated for 72 h. After this incubation period 20 μl of AlamarBlue™ is added to each well. As a control, 20 μl of reduced AlamarBlue™ (AlamarBlue™ autoclaved for 30 min) is added to 4 wells without cells, and 20 μl of AlamarBlue™ is added to the remaining 4 wells without cells. After 4-5 h of incubation, the plates are measured in a fluorescence spectrophotometer (excitation 530 nm, emission 590 nm, slits 15, integrate time 0.1).\n(§9) Data analysis: For calculation the mean value from the quadruplicates is taken and the background is subtracted. The 0.1% DMSO value (the mean obtained from 8 wells with cells in medium with 0.1% DMSO but no compound) is taken as 100% control. The data is fitted by iterative calculations using a sigmoidal curve analysis program (Graph Pad Prism version 3.03) with variable Hill slope."}, "Raji [4]": {"test_system": "Raji", "test": "Alamar Blue cytotoxicity assay", "details": "Homo sapiens; Raji (Lymphoma), 72 h", "source_text": "as §6, §7, §3, §8, §9"}, "Saos-2 [5]": {"test_system": "Saos-2", "test": "Alamar Blue cytotoxicity assay", "details": "Homo sapiens; Saos-2 (Bone), 72 h", "source_text": "as §6, §7, §3, §8, §9"}, "HL-60": {"test_system": "HL-60", "test": "Alamar Blue cytotoxicity assay", "details": "Homo sapiens; HL-60 (Leukemia), 72 h", "source_text": "as §6, §7, §3, §8, §9"}, "MDA-MB-435S [6]": {"test_system": "MDA-MB-435S", "test": "Alamar Blue cytotoxicity assay", "details": "Homo sapiens; MDA-MB-435S (Breast), 72 h", "source_text": "as §6, §7, §3, §8, §9"}, "BRO": {"test_system": "BRO", "test": "Alamar Blue cytotoxicity assay", "details": "Homo sapiens; BRO (Melanoma), 72 h", "source_text": "as §6, §7, §3, §8, §9"}}, "data": [{"smiles": "CC[C@@H]1C(=O)N(C)c2cnc(Nc3ccc(C(=O)NC4CCN(C)CC4)cc3OC)nc2N1C1CCCC1", "note": "[4-[[(7R)-8-cyclopentyl-7-ethyl-5,6,7,8-tetrahydro-5-methyl-6-oxo-2-pteridinyl]amino]-3-methoxy-N-(1-methyl-4-piperidinyl)-benzamide]", "values": [{"measurement": "EC50", "setting": "Raji [1]", "value": 20, "unit": "nM"}, {"measurement": "EC50", "setting": "Saos-2 [2]", "value": 11, "unit": "nM"}, {"measurement": "EC50", "setting": "MDA-MB-435S [3]", "value": 38, "unit": "nM"}, {"measurement": "EC50", "setting": "NCI-H520", "value": 18, "unit": "nM"}, {"measurement": "EC50", "setting": "HeLa S3", "value": 16, "unit": "nM"}, {"measurement": "EC50", "setting": "BxPC-3", "value": 22, "unit": "nM"}, {"measurement": "EC50", "setting": "NCI-H460", "value": 32, "unit": "nM"}, {"measurement": "EC50", "setting": "A549", "value": 14, "unit": "nM"}, {"measurement": "EC50", "setting": "GRANTA-519", "value": 12, "unit": "nM"}, {"measurement": "EC50", "setting": "SKOV-3", "value": 11, "unit": "nM"}, {"measurement": "EC50", "setting": "PC-3", "value": 12, "unit": "nM"}, {"measurement": "EC50", "setting": "A431", "value": 6, "unit": "nM"}, {"measurement": "EC50", "setting": "HepG2", "value": 39, "unit": "nM"}, {"measurement": "EC50", "setting": "H4", "value": 39, "unit": "nM"}, {"measurement": "EC50", "setting": "FaDu", "value": 7, "unit": "nM"}, {"measurement": "EC50", "setting": "MCF7", "value": 9, "unit": "nM"}, {"measurement": "EC50", "setting": "Raji [4]", "value": 14, "unit": "nM"}, {"measurement": "EC50", "setting": "Saos-2 [5]", "value": 8, "unit": "nM"}, {"measurement": "EC50", "setting": "HL-60", "value": 14, "unit": "nM"}, {"measurement": "EC50", "setting": "MDA-MB-435S [6]", "value": 17, "unit": "nM"}, {"measurement": "EC50", "setting": "BRO", "value": 4, "unit": "nM"}]}]}
